Each structure is given as a SMILES string. A value given as a limit tells only on which side of the number the result lay.

The source of these data is BindingDB's records for doi:10.1111/cbdd.12836 (Korea Institute of Science and Technology, 2017).

For experiment [1], the target named is Serine/threonine-protein kinase B-raf [V600E] (Homo sapiens, UniProt P15056, V600E). Kind of experiment: In vitro Enzyme Assay. The note with it: pH 7.5; 25 °C. The procedure:
(§1) Reaction Biology Corporation Kinase HotSpotSM service: In a final reactionvolume of 25 μL, kinase (5-10 mU) is incubated with 25 mM Tris pH 7.5, 0.02 mM ethylene glycol tetracetic acid (EGTA), 0.66 mg/mL myelin basic protein, […], and [γ33P-ATP] (specific activity approx. 500 c.p.m./pmol,concentration as required). The reaction is initiated by the addition of the Mg-ATP mix. After incubation for 40 min at room temperature, the reaction is stopped by the addition of 5 μL of a 3% phosphoric acid solution. About 10 μL ofthe reaction solution is then spotted onto a P30 filtermat and washed three times for 5 min in 75 mM phosphoric acid and once in methanol prior to drying and scintillation counting.

Experiment [2] has as its target RAF proto-oncogene serine/threonine-protein kinase (Homo sapiens, UniProt P04049). Kind of experiment: In vitro Enzyme Assay. As to conditions: pH 7.5; 25 °C. The method, then:
as §1

Chain of Serine/threonine-protein kinase B-raf [V600E] (P15056 2-766 V600E limits assumed): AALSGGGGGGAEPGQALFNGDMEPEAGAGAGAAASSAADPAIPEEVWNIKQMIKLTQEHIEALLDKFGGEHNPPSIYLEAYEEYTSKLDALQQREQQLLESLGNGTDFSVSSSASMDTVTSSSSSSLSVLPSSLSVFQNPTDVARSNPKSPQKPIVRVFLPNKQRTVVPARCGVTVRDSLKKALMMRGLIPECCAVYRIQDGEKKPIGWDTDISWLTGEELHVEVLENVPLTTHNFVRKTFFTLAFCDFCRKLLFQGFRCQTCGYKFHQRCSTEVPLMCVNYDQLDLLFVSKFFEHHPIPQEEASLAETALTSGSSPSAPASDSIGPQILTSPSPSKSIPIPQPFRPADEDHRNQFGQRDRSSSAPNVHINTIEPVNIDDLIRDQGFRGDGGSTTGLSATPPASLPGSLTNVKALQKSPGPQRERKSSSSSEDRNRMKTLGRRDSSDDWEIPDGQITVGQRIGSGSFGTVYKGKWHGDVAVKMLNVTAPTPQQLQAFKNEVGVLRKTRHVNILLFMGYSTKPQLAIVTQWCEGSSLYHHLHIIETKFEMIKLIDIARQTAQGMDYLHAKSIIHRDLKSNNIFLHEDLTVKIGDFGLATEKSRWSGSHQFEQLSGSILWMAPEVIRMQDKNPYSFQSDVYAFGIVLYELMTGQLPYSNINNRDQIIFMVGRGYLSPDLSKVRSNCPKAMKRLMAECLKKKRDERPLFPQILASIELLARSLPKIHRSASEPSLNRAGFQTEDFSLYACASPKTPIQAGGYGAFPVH
Chain of RAF proto-oncogene serine/threonine-protein kinase (P04049 whole entry): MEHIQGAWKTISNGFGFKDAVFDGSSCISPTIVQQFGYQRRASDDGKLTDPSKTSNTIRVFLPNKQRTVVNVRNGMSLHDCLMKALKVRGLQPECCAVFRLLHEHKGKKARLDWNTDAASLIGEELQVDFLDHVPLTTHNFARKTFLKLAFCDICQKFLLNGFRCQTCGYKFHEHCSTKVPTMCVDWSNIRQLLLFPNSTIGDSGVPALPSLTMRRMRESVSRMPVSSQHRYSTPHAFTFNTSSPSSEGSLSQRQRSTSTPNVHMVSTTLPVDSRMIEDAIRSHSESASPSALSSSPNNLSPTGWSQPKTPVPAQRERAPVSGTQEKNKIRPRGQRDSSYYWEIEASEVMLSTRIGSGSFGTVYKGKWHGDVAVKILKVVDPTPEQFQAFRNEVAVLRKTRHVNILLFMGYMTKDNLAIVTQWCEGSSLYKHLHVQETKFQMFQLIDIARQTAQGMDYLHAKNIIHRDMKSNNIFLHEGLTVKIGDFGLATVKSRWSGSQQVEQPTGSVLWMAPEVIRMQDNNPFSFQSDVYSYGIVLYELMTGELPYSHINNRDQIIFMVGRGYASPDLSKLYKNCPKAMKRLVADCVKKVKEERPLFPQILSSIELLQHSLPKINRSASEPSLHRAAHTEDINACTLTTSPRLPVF

For `CNC(=O)c1cc(Oc2cccc3nc(Nc4cccc(C(C)(C)C)c4)ccc23)ccn1` [4-((2-((3-(Tert-butyl)phenyl)amino)quinolin-5-yl)oxy)-N-methylpicolinamide (6d)], the IC50 in experiment [1] is above 100 µM; in experiment [2], 92.6 µM.

`CNC(=O)c1cc(Oc2cccc3nc(Nc4ccc(Cl)c(C(F)(F)F)c4)ccc23)ccn1` [4-((2-((4-Chloro-3-(trifluoromethyl)phenyl)amino)quinolin-5-yl)oxy)-N-methylpicolinamide (6j)]: the IC50 in experiment [1] and in experiment [2] was above 100 µM each time.
